Assay results from patent US5523408A, “2-carbocyclic and 2-heterocyclic quinoline-4-carboxylic acids and salts thereof useful as immunosuppressive agents” (The Dupont Merck Pharmaceutical Company, priority 1994, dated 1996).
Structures can show the parent of a compound that is named as a salt. Where two headings read alike, the source gives them in different places.

Key:
[1] = system: human mixed lymphocyte reaction; assay: Human Mixed Lymphocyte Reaction Test (MLR); type: cell-based; conditions: 144 h
Source text: The human mixed lymphocyte reaction is an in vitro immune response. Inhibition of the human mixed lymphocyte reaction immune response is a standard assay used in the field of immunology, which is considered to be indicative of in vivo immunosuppressive activity. […] The human mixed lymphocyte is also used as a model system for immune reactions involving T-cell-mediated immune responses. Such T-cell-mediated immune responses have been linked to the disease pathology associated with autoimmune diseases, chronic inflammatory diseases, graft versus host disease and organ transplantation rejection.
Blood was obtained by venipuncture from two non-related human donors. Peripheral blood mononuclear cells (PBMC) were isolated from these samples by using the Leuco Prep procedure (Becton-Dickinson). […] Cells from donor A (2×10^5) were incubated with cells from donor B (2×10^5) with or without compound in 96 well round bottom microtiter plates at 37° C., 5% CO2 for 6 days. Eighteen hours prior to harvesting cells from the plates, all wells were pulsed with 1 uCi of tritiated-thymidine. Cells from the plates were washed on day 6 and tritiated-thymidine incorporation was determined using a scintillation counter.

[2] = system: contact sensitivity response to 2,4-dinitrofluorobenzene (DNFB); assay: Assay of Contact Sensitivity Response to DNFB in Mice; type: in vivo, Balb/c female mice; conditions: oral, 0.25% Methocel; ear swelling 24 hours after DNFB challenge
Source text: Contact sensitivity to 2,4-dinitrofluorobenzene (DNFB) has been extensively studied and characterized in the mouse to determine the regulatory mechanisms involved in cell mediated immune responses (Claman et al., Immunol. Rev. 50:105, 1980; Young and Young, "Cutaneous Models of Inflammation for the Evaluation of Topical and Systemic Pharmacological Agents" in Pharmacological Methods in the Control of Inflammation (Chang and Lewis, Eds.), Alan R. Liss, Inc., New York, pp. 215-231, 1989). This is an antigen-specific T-cell mediated inflammatory response that represents delayed-type hypersensitivity reactions seen in both humans and other mammals. This contact sensitivity animal model is used routinely in many laboratories for pharmacological screening of antiinflammatory agents.
The contact sensitivity model used for this study is an extensively used model system for delayed-type hypersensitivity reactions involving cell-mediated immune responses (T-cell mediated responses), which have been linked to the disease pathology associated with organ transplantation rejection, graft versus host disease, multiple sclerosis, myasthenia gravis, systemic lupus erythematosus, rheumatoid arthritis, and other chronic inflammatory diseases and autoimmune diseases for which the T-cell is pivotal to mounting an immune or autoimmune response.
Balb/c female mice (approximately 20 g, Charles River) were sensitized on the shaved abdomen with 25 uL of 0.5% 2,4-dinitrofluorobenzene (DNFB) (Eastman Kodak Co.) in a vehicle of 4:1 acetone: olive oil on days 0 and 1. Mice were ear challenged with 20 uL of 0.2% DNFB in a vehicle of 4:1 acetone: olive oil on day 5. An identical segment of the ear was measured immediately before challenge and 24 hours later with an engineer's micrometer. Ear swelling was expressed as the difference in ear thickness before and after challenge in units of 10-4 inches±SEM. Percent suppression was calculated as: [formula] Compounds (prepared in 0.25% Methocel®) were administered orally. Control animals received only vehicle (0.25% Methocel®). Negative controls were not sensitized on days 0 and 1 but were ear challenged on day 5. Ten mice are typically used per group.
Contact sensitivity results for representative compounds of the present invention are shown in Table B. In this table, + designates greater than 30% suppression of control ear swelling.

[3] = human MLR, tritiated-thymidine incorporation, 6 days, read-out: IC50

Row | IC50 [1, 3] [nM] | Compound | IC50 ([1]; Homo sapiens) [nM] | Contact Sensitivity Activity (suppression of control ear swelling) [2]
1 |  | O=C(O)c1cc(N2CCc3c(-c4ccccc4)cccc32)nc2ccc(F)cc12 [Ex. 5, 6-fluoro-2-(4-phenyl-1-indolinyl)-quinoline-4-carboxylic acid, sodium salt] | < 50 | 
2 |  | CN(Cc1cnc2nc(N)nc(N)c2n1)c1ccc(C(=O)N[C@@H](CCC(=O)O)C(=O)O)cc1 [methotrexate, reference compound] | < 50 | + (greater than 30% suppression of control ear swelling)
3 |  | Cc1c(-n2ccc3c(-c4ccccc4)cccc32)nc2ccc(F)cc2c1C(=O)[O-].[Na+] [Ex. 47, 6-fluoro-3-methyl-2-(4-phenyl-1-indolyl)-quinoline-4-carboxylic acid, sodium salt] |  | + (greater than 30% suppression of control ear swelling)
4 |  | Cc1ccccc1-c1cccc2c1CCN2c1cc(C(=O)O)c2cc(F)ccc2n1 [Ex. 8, 6-fluoro-2-[4-(2-methylphenyl)-1-indolinyl]-quinoline-4-carboxylic acid, sodium salt] | < 50 | 
5 |  | Cc1c(-c2cn(C)c3c(-c4ccccc4)cccc23)nc2ccc(F)cc2c1C(=O)[O-].[Na+] [Ex. 75, 6-fluoro-3-methyl-2-(7-phenyl-1-methyl-3-indolyl)-quinoline-4-carboxylic acid, sodium salt] | 50 to 10000 | + (greater than 30% suppression of control ear swelling)
6 |  | Cc1ccccc1-c1cccc2c1CCN2c1nc2ccc(F)cc2c(C(=O)O)c1C [Ex. 11, 6-fluoro-3-methyl-2-[4-(2-methylphenyl)-1-indolinyl]-quinoline-4-carboxylicacid, sodium salt] | < 50 | 
7 | < 50 | O=C(O)c1cc(N2CCc3c(-c4ccccc4F)cccc32)nc2ccc(F)cc12 [Ex. 7] |  | + (greater than 30% suppression of control ear swelling)
8 |  | Cc1c(N2CCc3c(-c4ccccc4)cccc32)nc2ccc(F)cc2c1C(=O)[O-].[Na+] [Ex. 2, 6-fluoro-3-methyl-2-(4-phenyl-1-indolinyl)quinoline-4-carboxylic acid, sodium salt] |  | + (greater than 30% suppression of control ear swelling)
9 |  | Cc1c(N2CCc3c(-c4ccccc4F)cccc32)nc2ccc(F)cc2c1C(=O)[O-].[Na+] [Ex. 10, 6-fluoro-2-[4-(2-fluorophenyl)-1-indolinyl]-3-methylquinoline-4-carboxylic acid, sodium salt] | < 50 | + (greater than 30% suppression of control ear swelling)
10 |  | Cc1c(N2CCc3c(-c4cccc(C(F)(F)F)c4)cccc32)nc2ccc(F)cc2c1C(=O)[O-].[Na+] [Ex. 12, 6-fluoro-3-methyl-2-[4-(3-trifluoromethylphenyl)-1-indolinyl]-quinoline-4-carboxylic acid, sodium salt] | < 50 | + (greater than 30% suppression of control ear swelling)
11 | 50 to 10000 | Cc1c(-c2cccc3c(-c4ccccc4)cccc23)nc2ccc(F)cc2c1C(=O)O [Ex. 128, 6-fluoro-3-methyl-2-(5-phenyl-1-naphthyl) quinoline-4-carboxylic acid, sodium salt] |  | 
12 |  | Cc1c(-c2cn(C)c3c(-c4ccccc4)cccc23)nc2ccc(C(F)(F)F)cc2c1C(=O)O [Ex. 73, 3-methyl-2-(7-phenyl-1-methyl-3-indolyl)-6-trifluoromethylquinoline-4-carboxylic acid, sodium salt] | < 50 | 
13 | 50 to 10000 | Cc1c(-n2cnc3c(-c4ccccc4)cc(F)cc32)nc2ccc(F)cc2c1C(=O)O [Ex. 68, 6-fluoro-3-methyl-2-(6-fluoro-4-phenyl-1-benzimidazolyl)quinoline-4-carboxylic acid] |  | 
14 | 50 to 10000 | Cc1c(N2CCc3c(-c4ccccc4)cccc32)nc2ccccc2c1C(=O)O [Ex. 4] |  | + (greater than 30% suppression of control ear swelling)
15 |  | O=C([O-])c1cc(N2CCc3c(-c4cccc(C(F)(F)F)c4)cccc32)nc2ccc(F)cc12.[Na+] [Ex. 6, 6-fluoro-2-[4-(3-trifluoromethylphenyl)-1-indolinyl]-quinoline-4-carboxylicacid, sodium salt] | < 50 | + (greater than 30% suppression of control ear swelling)
16 | < 50 | COc1cccc(-c2cccc3c2CCN3c2nc3ccc(F)cc3c(C(=O)O)c2C)c1 [Ex. 13, 6-fluoro-[4-(3-methoxyphenyl)-1-indolinyl]-3-methylquinoline-4-carboxylic acid, sodium salt] |  | 
17 | < 50 | COc1ccccc1-c1cccc2c1CCN2c1nc2ccc(F)cc2c(C(=O)O)c1C [Ex. 9, 6-fluoro-[4-(2-methoxyphenyl)-1-indolinyl]-3-methylquinoline-4-carboxylic acid, sodium salt] |  | 

Row | Compound | IC50 [1, 3] [nM] | IC50 ([1]; Homo sapiens) [nM] | Contact Sensitivity Activity (suppression of control ear swelling) [2]
18 | Cc1c(N2CCc3c(-c4ccccc4)cccc32)nc2ccc(F)cc2c1C(=O)O [Ex. 1, 6-fluoro-3-methyl-2-(4-phenyl-1-indolinyl)quinoline-4-carboxylic acid] | < 50 |  | + (greater than 30% suppression of control ear swelling)
19 | Cc1c(-n2ccc3c(-c4ccccc4)cccc32)nc2ccc(F)cc2c1C(=O)O [Ex. 46] | 50 to 10000 |  | + (greater than 30% suppression of control ear swelling)
